Assay results published in US20110230493A1, “1-OXA-8-Azaspiro [4,5] Decabe-8-Carboxamide Compounds as FAAH Inhibitors” (Pfizer Inc., priority 2008, published 2011).

Experiments:
rat FAAH = target: T1, rat FAAH (Rattus norvegicus, UniProt P97612); test: FAAH assay, rat FAAH enzyme inactivation (kinact/Ki); type: biochemical; conditions: oleamide 50 μM, 30° C.; for kinact/KI: pH 7.4, in vitro, read-out: rFAAH kinact/Ki; for rFAAH kinact/Ki: in vitro, pH 7.4
T1 construct: made in house; host or cells: E. coli
T1 sequence (P97612 1-579): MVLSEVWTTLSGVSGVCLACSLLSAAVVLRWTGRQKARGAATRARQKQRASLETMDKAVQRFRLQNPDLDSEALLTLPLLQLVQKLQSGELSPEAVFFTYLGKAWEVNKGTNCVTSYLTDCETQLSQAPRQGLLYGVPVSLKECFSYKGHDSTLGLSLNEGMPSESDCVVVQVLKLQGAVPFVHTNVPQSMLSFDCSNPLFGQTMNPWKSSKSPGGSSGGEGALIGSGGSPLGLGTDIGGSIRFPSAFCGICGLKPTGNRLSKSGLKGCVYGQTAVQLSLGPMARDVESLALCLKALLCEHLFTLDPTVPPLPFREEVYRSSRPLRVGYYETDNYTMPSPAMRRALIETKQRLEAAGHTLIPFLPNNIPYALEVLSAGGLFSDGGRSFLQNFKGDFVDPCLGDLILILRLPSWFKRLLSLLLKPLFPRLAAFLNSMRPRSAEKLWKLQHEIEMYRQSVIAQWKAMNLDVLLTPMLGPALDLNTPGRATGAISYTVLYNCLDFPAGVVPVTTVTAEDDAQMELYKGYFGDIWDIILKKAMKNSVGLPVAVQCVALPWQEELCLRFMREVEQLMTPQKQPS
Method in brief: (§1)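 Oleamide hydrolysis by 1-4 nM purified E. coli-expressed FAAH (substrate 50 μM = Km) coupled to GDH/NADH, pH 7.4 phosphate, 7.5% DMSO and EtOH, 30° C; A340 followed 90 min. kobs from mono-exponential fits; kinact/Ki from kobs-versus-concentration slope, multiplied by two.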

Male Sprague-Dawley Rats = test: In vivo Complete Freund's Adjuvant (CFA) efficacy assay, inhibition of allodynia; design: species or system rat; key: (+) indicates the test compound was determined to be efficacious at 3 mpk, oral dosing; (−) indicates the test compound was determined to not be efficacious at 3 mpk, oral dosing; conditions: 3 mpk, oral dosing; PWT four hours postdose; p < 0.05 vs vehicle group
Description: For additional information on the CFA efficacy assay, see Jayamanne et al., Brit. J. Pharmacol. 2006, 147, 281-288. Experiments were performed on adult Male Sprague-Dawley Rats (200 g-250 g). Inflammation was induced in the left hindpaw of the rat by an intra-plantar injection of 150 uL Complete Freund's Adjuvant (CFA) (SIGMA F5881). The CFA injection immediately induces local inflammation, paw swelling, and pain that persists for at least two weeks post-injection. Baseline paw withdrawal threshold (PWT) was measured to determine the percent inhibition of allodynia using a set of Von Frey Hairs on day 4 post injection as illustrated by the Dixon Up and Down Method (W. J. Dixon, Ann. Rev. Pharmacol. Toxicol. 1980, 20:441-462). […] Following Dose administration PWT threshold was evaluated again at four hours postdose. The Sprague-Dawley rats used in this assay were purchased from Harlan, 8520 Allison Pointe Blvd., Indianapolis, Ind., 46250, U.S.A. Sprague-Dawley rats are an outbred breed of albino rats first produced by the Sprague Dawley farms in Madison, Wis., U.S.A.
Percent Inhibition of Allodynia was determined by the formula: […]
ΔPWT measurements were averaged for each treatment group and statistical comparisons between groups were made using ANOVA and Dunnett's two-tailed test. […]

human FAAH = target: T2, human FAAH (Homo sapiens, UniProt O00519); test: FAAH assay, human FAAH enzyme inactivation (kinact/Ki); type: biochemical; conditions: oleamide 50 μM, 30° C.; for hFAAH kinact/Ki: in vitro, pH 7.4; for kinact/KI: pH 7.4, in vitro, read-out: hFAAH kinact/Ki
T2 construct: made in house; host or cells: E. coli
T2 sequence (O00519 1-579): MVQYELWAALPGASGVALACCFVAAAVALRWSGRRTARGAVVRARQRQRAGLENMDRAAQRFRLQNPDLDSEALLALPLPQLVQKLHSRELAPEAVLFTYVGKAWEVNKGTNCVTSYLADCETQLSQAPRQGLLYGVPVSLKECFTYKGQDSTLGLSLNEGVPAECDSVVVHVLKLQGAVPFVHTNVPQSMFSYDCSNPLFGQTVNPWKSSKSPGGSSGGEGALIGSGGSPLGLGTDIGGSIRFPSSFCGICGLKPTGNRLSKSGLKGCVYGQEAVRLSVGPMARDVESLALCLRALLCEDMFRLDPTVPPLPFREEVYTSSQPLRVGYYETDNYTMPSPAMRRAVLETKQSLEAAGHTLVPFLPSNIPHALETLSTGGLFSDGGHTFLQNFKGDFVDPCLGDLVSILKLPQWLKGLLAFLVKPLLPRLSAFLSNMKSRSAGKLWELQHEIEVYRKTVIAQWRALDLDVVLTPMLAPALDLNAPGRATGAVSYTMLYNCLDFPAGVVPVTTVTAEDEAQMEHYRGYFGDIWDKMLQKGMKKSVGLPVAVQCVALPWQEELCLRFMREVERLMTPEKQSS
Method in brief: as §1

Row | SMILES | kinact/KI (rat FAAH) | hFAAH kinact/Ki (human FAAH) | rFAAH kinact/Ki (rat FAAH) | kinact/KI (human FAAH) | CFA Efficacy (Male Sprague-Dawley Rats)
1 | Cc1noc(NC(=O)N2CCC3(CC2)CC(c2ccc(Cl)c(Cl)c2)CO3)c1C (single isomer, unassigned) [Example 37, 3-(3,4-dichlorophenyl)-N-(3,4-dimethylisoxazol-5-yl)-1-oxa-8-azaspiro[4.5]decane-8-carboxamide] | 4540 M⁻¹ s⁻¹ | 4130 M⁻¹ s⁻¹ | – | – | (+)
2 | Cc1noc(NC(=O)N2CCC3(CC2)CC(c2cc(F)cc(Cl)c2)CO3)c1C (single isomer, unassigned) [Example 39, 3-(3-chloro-5-fluorophenyl)-N-(3,4-dimethylisoxazol-5-yl)-1-oxa-8-azaspiro[4.5]decane-8-carboxamide] | – | – | 1510 M⁻¹ s⁻¹ | 1810 M⁻¹ s⁻¹ | (+)
3 | Cc1noc(NC(=O)N2CCC3(CC2)CC(c2ccc(OCc4ccccc4Cl)c(Cl)c2)CO3)c1C (single isomer, unassigned) [Example 43, 3-{3-chloro-4-[(2-chlorobenzyl)oxy]phenyl}-N-(3,4-dimethylisoxazol-5-yl)-1-oxa-8-azaspiro[4.5]decane-8-carboxamide] | – | 3620 M⁻¹ s⁻¹ | 5870 M⁻¹ s⁻¹ | – | (+)
4 | Cc1noc(NC(=O)N2CCC3(CC2)CC(c2ccc(OCc4ccccc4Cl)c(Cl)c2)CO3)c1C (single isomer, unassigned) [Example 44, 3-{3-chloro-4-[(2-chlorobenzyl)oxy]phenyl}-N-(3,4-dimethylisoxazol-5-yl)-1-oxa-8-azaspiro[4.5]decane-8-carboxamide] | – | 1330 M⁻¹ s⁻¹ | 1950 M⁻¹ s⁻¹ | – | (+)
5 | Cc1noc(NC(=O)N2CCC3(CC2)CC(c2ccc(OCc4cccc(Cl)c4)c(Cl)c2)CO3)c1C (single isomer, unassigned) [Example 45, 3-{3-chloro-4-[(3-chlorobenzyl)oxy]phenyl}-N-(3,4-dimethylisoxazol-5-yl)-1-oxa-8-azaspiro[4.5]decane-8-carboxamide] | 7130 M⁻¹ s⁻¹ | – | – | 6240 M⁻¹ s⁻¹ | (+)
6 | Cc1noc(NC(=O)N2CCC3(CC2)CC(c2ccc(OCc4cccc(Cl)c4)c(Cl)c2)CO3)c1C (single isomer, unassigned) [Example 46, 3-{3-chloro-4-[(3-chlorobenzyl)oxy]phenyl}-N-(3,4-dimethylisoxazol-5-yl)-1-oxa-8-azaspiro[4.5]decane-8-carboxamide] | – | 4490 M⁻¹ s⁻¹ | 6920 M⁻¹ s⁻¹ | – | (+)
7 | CCc1noc(NC(=O)N2CCC3(CC2)CC(c2ccc(Cl)c(Cl)c2)CO3)c1C (single isomer, unassigned) [Example 68, 3-(3,4-dichlorophenyl)-N-(3-ethyl-4-methylisoxazol-5-yl)-1-oxa-8-azaspiro[4.5]decane-8-carboxamide] | 3030 M⁻¹ s⁻¹ | – | – | 1920 M⁻¹ s⁻¹ | (+)
8 | Cc1noc(NC(=O)N2CCC3(CC2)CC(c2noc(-c4ccc(OC(F)(F)F)cc4)n2)CO3)c1C (single isomer, unassigned) [Example 72, N-(3,4-dimethylisoxazol-5-yl)-3-{5-[4-(trifluoromethoxy)phenyl]-1,2,4-oxadiazol-3-yl}-1-oxa-8-azaspiro[4.5]decane-8-carboxamide] | 1500 M⁻¹ s⁻¹ | – | – | 4250 M⁻¹ s⁻¹ | (+)
9 | Cc1noc(NC(=O)N2CCC3(CC2)CC(c2noc(-c4ccc(OC(F)(F)F)cc4)n2)CO3)c1C (single isomer, unassigned) [Example 73, N-(3,4-dimethylisoxazol-5-yl)-3-{5-[4-(trifluoromethoxy)phenyl]-1,2,4-oxadiazol-3-yl}-1-oxa-8-azaspiro[4.5]decane-8-carboxamide] | – | 2150 M⁻¹ s⁻¹ | 1340 M⁻¹ s⁻¹ | – | (+)

Further lines, with some results ahead:

Row | kinact/KI (rat FAAH) | hFAAH kinact/Ki (human FAAH) | rFAAH kinact/Ki (rat FAAH) | kinact/KI (human FAAH) | SMILES | CFA Efficacy (Male Sprague-Dawley Rats)
10 | 1610 M⁻¹ s⁻¹ | – | – | 3570 M⁻¹ s⁻¹ | Cc1noc(NC(=O)N2CCC3(CC2)CC(c2noc(-c4ccc(C(F)(F)F)cc4)n2)CO3)c1C (single isomer, unassigned) [Example 75, N-(3,4-dimethylisoxazol-5-yl)-3-{5-[4-(trifluoromethyl)phenyl]-1,2,4-oxadiazol-3-yl}-1-oxa-8-azaspiro[4.5]decane-8-carboxamide] | (+)
11 | – | 3120 M⁻¹ s⁻¹ | 1150 M⁻¹ s⁻¹ | – | Cc1noc(NC(=O)N2CCC3(CC2)CC(c2noc(-c4ccc(C(F)(F)F)cc4)n2)CO3)c1C (single isomer, unassigned) [Example 76, N-(3,4-dimethylisoxazol-5-yl)-3-{5-[4-(trifluoromethyl)phenyl]-1,2,4-oxadiazol-3-yl}-1-oxa-8-azaspiro[4.5]decane-8-carboxamide] | (+)
12 | 4560 M⁻¹ s⁻¹ | – | – | 7110 M⁻¹ s⁻¹ | Cn1nnnc1NC(=O)N1CCC2(CC1)CC(c1cccc(OC(F)(F)F)c1)CO2 (single isomer, unassigned) [Example 77, N-(1-methyl-1H-tetrazol-5-yl)-3-[3-(trifluoromethoxy)phenyl]-1-oxa-8-azaspiro[4.5]decane-8-carboxamide] | (+)
13 | – | 7100 M⁻¹ s⁻¹ | 3840 M⁻¹ s⁻¹ | – | Cn1nnnc1NC(=O)N1CCC2(CC1)CC(c1cccc(OC(F)(F)F)c1)CO2 (single isomer, unassigned) [Example 78, N-(1-methyl-1H-tetrazol-5-yl)-3-[3-(trifluoromethoxy)phenyl]-1-oxa-8-azaspiro[4.5]decane-8-carboxamide] | (+)
14 | – | 5600 M⁻¹ s⁻¹ | 1970 M⁻¹ s⁻¹ | – | Cn1nnnc1NC(=O)N1CCC2(CC1)CC(c1cccc(Cl)c1)CO2 (single isomer, unassigned) [Example 79, 3-(3-chlorophenyl)-N-(1-methyl-1H-tetrazol-5-yl)-1-oxa-8-azaspiro[4.5]decane-8-carboxamide] | (+)
15 | – | 11400 M⁻¹ s⁻¹ | 5520 M⁻¹ s⁻¹ | – | Cn1nnnc1NC(=O)N1CCC2(CC1)CC(c1cccc(Cl)c1)CO2 (single isomer, unassigned) [Example 80, 3-(3-chlorophenyl)-N-(1-methyl-1H-tetrazol-5-yl)-1-oxa-8-azaspiro[4.5]decane-8-carboxamide] | (+)
16 | 1500 M⁻¹ s⁻¹ | – | – | 5110 M⁻¹ s⁻¹ | Cn1nnnc1NC(=O)N1CCC2(CC1)CC(c1noc(-c3ccc(C(F)(F)F)cc3)n1)CO2 (single isomer, unassigned) [Example 82, N-(1-methyl-1H-tetrazol-5-yl)-3-{5-[4-(trifluoromethyl)phenyl]-1,2,4-oxadiazol-3-yl}-1-oxa-8-azaspiro[4.5]decane-8-carboxamide] | (+)
